Laboratory results as given in the NIST ThermoML archive (doi:10.1016/j.fluid.2018.06.013).
Numbers after ± are expanded uncertainties.

Experiment: activity coefficient (dimensionless); of the first substance listed, at infinite dilution; xn = mol fraction of the nth substance listed
Conditions: 100 kPa, Liquid, Chromatography, x1 = 0

Compound | activity coefficient (313.15 K) | activity coefficient (323.15 K) | activity coefficient (343.15 K) | activity coefficient (363.15 K) | activity coefficient (373.15 K)
C=C(C)c1ccccc1 [(1-methylethenyl)benzene] + CCCC[N+]1(C)CCCC1.N#CN=C=[N-] | 2.2 ± 0.23 | 2.37 ± 0.25 | 2.67 ± 0.28 | 2.89 ± 0.3 | 3.02 ± 0.32
C=Cc1ccccc1 [styrene] + CCCC[N+]1(C)CCCC1.N#CN=C=[N-] | 1.49 ± 0.15 | 1.54 ± 0.16 | 1.7 ± 0.18 | 1.8 ± 0.19 | 1.9 ± 0.2
C1=CCCCC1 [cyclohexene] + CCCC[N+]1(C)CCCC1.N#CN=C=[N-] | 9.06 ± 0.95 | 8.78 ± 0.92 | 8.65 ± 0.91 | 8.48 ± 0.89 | 8.26 ± 0.87
CCC(C)(C)OC [2-methoxy-2-methylbutane] + CCCC[N+]1(C)CCCC1.N#CN=C=[N-] | 9.56 ± 1 | 9.39 ± 0.99 | 9.65 ± 1 | 9.77 ± 1 | 9.93 ± 1
CCO [ethanol] + CCCC[N+]1(C)CCCC1.N#CN=C=[N-] | 0.533 ± 0.058 | 0.525 ± 0.057 | 0.52 ± 0.06 | 0.519 ± 0.057 | 0.521 ± 0.057
CCCCCCC [heptane] + CCCC[N+]1(C)CCCC1.N#CN=C=[N-] | 79.1 ± 8.3 | 74.6 ± 7.9 | 66.5 ± 7 | 60.2 ± 6.3 | 53.6 ± 5.6
CCC(=O)CC [pentan-3-one] + CCCC[N+]1(C)CCCC1.N#CN=C=[N-] | 1.7 ± 0.18 | 1.76 ± 0.18 | 1.9 ± 0.2 | 1.99 ± 0.21 | 2.04 ± 0.21
C#CCCCC [1-hexyne] + CCCC[N+]1(C)CCCC1.N#CN=C=[N-] | 3.81 ± 0.4 | 3.98 ± 0.42 | 4.32 ± 0.45 | 4.61 ± 0.48 | 4.77 ± 0.5
CCCC(C)=O [pentan-2-one] + CCCC[N+]1(C)CCCC1.N#CN=C=[N-] | 1.73 ± 0.18 | 1.79 ± 0.19 | 1.89 ± 0.2 | 1.96 ± 0.21 | 2.02 ± 0.21
CO [methanol] + CCCC[N+]1(C)CCCC1.N#CN=C=[N-] | 0.336 ± 0.042 | 0.333 ± 0.041 | 0.339 ± 0.042 | 0.348 ± 0.043 | 0.353 ± 0.043
Cc1ccc(C)cc1 [1,4-dimethylbenzene] + CCCC[N+]1(C)CCCC1.N#CN=C=[N-] | 3.24 ± 0.34 | 3.24 ± 0.34 | 3.47 ± 0.36 | 3.63 ± 0.38 | 3.73 ± 0.39
CC(C)=O [acetone] + CCCC[N+]1(C)CCCC1.N#CN=C=[N-] | 0.907 ± 0.093 | 0.91 ± 0.09 | 0.978 ± 0.099 | 1.04 ± 0.11 | 1.06 ± 0.11
CC#N [acetonitrile] + CCCC[N+]1(C)CCCC1.N#CN=C=[N-] | 0.659 ± 0.069 | 0.668 ± 0.07 | 0.693 ± 0.072 | 0.72 ± 0.08 | 0.728 ± 0.076
CCOC(C)(C)C [2-ethoxy-2-methylpropane] + CCCC[N+]1(C)CCCC1.N#CN=C=[N-] | 17.2 ± 1.8 | 16.9 ± 1.8 | 16.9 ± 1.8 | 16.7 ± 1.8 | 16.1 ± 1.7
CCCOCCC [dipropyl ether] + CCCC[N+]1(C)CCCC1.N#CN=C=[N-] | 17.9 ± 1.9 | 17 ± 1.8 | 16.8 ± 1.8 | 16.6 ± 1.7 | 16.6 ± 1.7
CCCCCCCC [octane] + CCCC[N+]1(C)CCCC1.N#CN=C=[N-] | 119 ± 13 | 111 ± 12 | 96 ± 10 | 86 ± 9.1 | 81 ± 8.5
c1ccncc1 [pyridine] + CCCC[N+]1(C)CCCC1.N#CN=C=[N-] | 1.02 ± 0.1 | 1.05 ± 0.11 | 1.07 ± 0.11 | 1.11 ± 0.11 | 1.13 ± 0.12
CCCCCCCCC [nonane] + CCCC[N+]1(C)CCCC1.N#CN=C=[N-] | 172 ± 18 | 154 ± 16 | 133 ± 14 | 120 ± 13 | 114 ± 12
CC(C)O [propan-2-ol] + CCCC[N+]1(C)CCCC1.N#CN=C=[N-] | 0.744 ± 0.077 | 0.719 ± 0.075 | 0.714 ± 0.074 | 0.711 ± 0.074 | 0.696 ± 0.073

More lines, now with the values ahead:

activity coefficient (313.15 K) | activity coefficient (323.15 K) | activity coefficient (343.15 K) | activity coefficient (363.15 K) | activity coefficient (373.15 K) | Compound
104 ± 11 | 98.2 ± 10 | 89.4 ± 9.4 | 83.7 ± 8.8 | 78.7 ± 8.3 | C=CCCCCCCCC [1-decene] + CCCC[N+]1(C)CCCC1.N#CN=C=[N-]
21 ± 2.2 | 20.3 ± 2.1 | 19.3 ± 2 | 18.4 ± 1.9 | 18.6 ± 2 | C=CCCCC [hex-1-ene] + CCCC[N+]1(C)CCCC1.N#CN=C=[N-]
47.8 ± 5 | 46.3 ± 4.9 | 42.8 ± 4.5 | 40.3 ± 4.2 | 39 ± 4.1 | C=CCCCCCC [oct-1-ene] + CCCC[N+]1(C)CCCC1.N#CN=C=[N-]
0.872 ± 0.089 | 0.835 ± 0.086 | 0.785 ± 0.081 | 0.786 ± 0.081 | 0.764 ± 0.079 | CC(C)CO [2-methyl-1-propanol] + CCCC[N+]1(C)CCCC1.N#CN=C=[N-]
1.04 ± 0.11 | 1.05 ± 0.11 | 1.1 ± 0.1 | 1.16 ± 0.12 | 1.21 ± 0.12 | CCC=O [propanal] + CCCC[N+]1(C)CCCC1.N#CN=C=[N-]
19.4 ± 2 | 18.8 ± 2 | 19.1 ± 2 | 18.6 ± 2 | 18.3 ± 1.9 | CC(C)OC(C)C [diisopropyl ether] + CCCC[N+]1(C)CCCC1.N#CN=C=[N-]
31.5 ± 3.3 | 30.4 ± 3.2 | 29.2 ± 3.1 | 27.8 ± 2.9 | 27.7 ± 2.9 | C=CCCCCC [1-heptene] + CCCC[N+]1(C)CCCC1.N#CN=C=[N-]
2.07 ± 0.22 | 2.09 ± 0.22 | 2.22 ± 0.23 | 2.33 ± 0.24 | 2.4 ± 0.25 | CCC(=O)OC [methyl propanoate] + CCCC[N+]1(C)CCCC1.N#CN=C=[N-]
6.25 ± 0.66 | 6.32 ± 0.66 | 6.55 ± 0.69 | 6.92 ± 0.73 | 7.15 ± 0.75 | COC(C)(C)C [2-methoxy-2-methylpropane] + CCCC[N+]1(C)CCCC1.N#CN=C=[N-]
0.807 ± 0.083 | 0.845 ± 0.087 | 0.929 ± 0.095 | 1.01 ± 0.1 | 1.05 ± 0.11 | c1ccsc1 [thiophene] + CCCC[N+]1(C)CCCC1.N#CN=C=[N-]
1.38 ± 0.14 | 1.4 ± 0.14 | 1.49 ± 0.15 | 1.6 ± 0.2 | 1.62 ± 0.17 | c1ccccc1 [benzene] + CCCC[N+]1(C)CCCC1.N#CN=C=[N-]
